What was measured:
Human AML MV-4-11 cells = assay: Inhibition of cell proliferation in MV4-11 cells (CellTiter Aqueous One); type: cell-based; conditions: MV4-11, 72 h
Summary of the method: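 MV4-11 cells, 5×10^4 per well in IMDM with 10% FBS, were exposed to increasing compound concentrations or 0.1% DMSO for 72 h at 37 °C in triplicate. Viability was read by MTS (CellTiter Aqueous One) absorbance at 490 nm after 3-4 h. IC50 was derived from background-corrected signal relative to DMSO.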

[1] = target: Brd4 bromodomain 1 (BRD4(1)) (Homo sapiens, UniProt O60885); assay: Inhibition of tetra-acetylated histone H4 binding to Brd4 bromodomain 1, measured by FRET (HTRF); set-up: made in house; host or cells: E. coli BL21(DE3); conditions: 2 h at room temperature
Summary of the method: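 N-terminally His-tagged bromodomain (200 nM), expressed in E. coli and purified by Ni affinity and size exclusion, was incubated with biotinylated tetra-acetylated H4 peptide (25-50 nM), Eu-cryptate streptavidin and XL665 anti-His in HEPES pH 7.4 buffer with 0.2% DMSO. Reactions ran 2 h at room temperature. IC50 came from the 665/620 nm fluorescence decrease.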

hIL-6 mRNA = assay: Inhibition of hIL-6 mRNA transcription in LPS-stimulated U937 macrophages; type: cell-based, Human; conditions: Homo sapiens, U-937, PMA-differentiated U937 cells, 1 h pretreatment, LPS 3 h, read-out: IL-6 activity
Method: Human leukemic monocyte lymphoma U937 cells (CRL-1593.2) were plated at a density of 3.2×10^4 cells per well in a 96-well plate in 100 μL RPMI-1640 containing 10% FBS and penicillin/streptomycin, and differentiated into macrophages for 3 days in 60 ng/mL PMA ([…]) at 37° C. in 5% CO2 prior to the addition of compound. The cells were pretreated for 1 h with increasing concentrations of test compound in 0.1% DMSO prior to stimulation with 1 ug/mL lipopolysaccharide from Escherichia coli. Triplicate wells were used for each concentration. The cells were incubated at 37° C., 5% CO2 for 3 h before the cells were harvested. At time of harvest, media was removed and cells were rinsed in 200 μL PBS. Cells were harvested using the mRNA Catcher PLUS kit according to manufacturer's instructions. The eluted mRNA was then used in a one-step quantitative real-time PCR reaction using components of the RNA UltraSense™ One-Step Kit (Life Technologies) together with Applied Biosystems TaqMan® primer-probes for hIL-6 and Cyclophilin. Real-time PCR plates were run on a ViiA™7 real time PCR machine (Applied Biosystems), data was analyzed, normalizing the Ct values for hlL-6 to an internal control, prior to determining the fold expression of each sample, relative to the control.

[2] = tested on: c-myc in Human AML MV4-11 cells; assay: Inhibition of cMYC expression (mRNA, real-time PCR) in MV4-11 cells; type: cell-based; conditions: 3 h treatment, cMYC mRNA by real-time PCR
Summary of the method: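 MV4-11 cells in IMDM with 10% FBS were treated with increasing compound concentrations (DMSO 0.1%) for 3 h at 37 °C, in triplicate. Isolated mRNA was quantified by one-step TaqMan RT-qPCR, cMYC Ct normalized to cyclophilin, and fold expression given relative to DMSO control.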

SMILES | IC50 (Human AML MV-4-11 cells) | IC50 [1] | IC50 (hIL-6 mRNA) | IC50 [2]
Cc1nc2c(-c3c(C)nc(N)nc3C)cc(-c3c(C)noc3C)cc2[nH]1 [Example Compound 99, 5-(6-(3,5-dimethyl-isoxazol-4-yl)-2-methyl-1H-benzo[d]imidazol-4-yl)-4,6-dimethyl pyrimidin-2-amine] | ≤ 300 nM | ≤ 300 nM | ≤ 300 nM | ≤ 300 nM
Cc1nc2c(-c3ccc4ocnc4c3)cc(-c3c(C)noc3C)cc2[nH]1 [Example Compound 136, 5-(6-(3,5-dimethyl-isoxazol-4-yl)-2-methyl-1H-benzo[d]imidazol-4-yl)benzo[d] oxazole] | 300 to 3000 nM | ≤ 300 nM | 300 to 3000 nM | ≤ 300 nM
COCc1ccccc1-c1cc(-c2c(C)noc2C)cc2[nH]c(C)nc12 [Example Compound 117, 4-(4-(2-(methoxy-methyl)phenyl)-2-methyl-1H-benzo[d]imidazol-6-yl)-3,5-dimethyl-isoxazole] | ≤ 300 nM | ≤ 300 nM | ≤ 300 nM | ≤ 300 nM
Cc1nc2c(-c3cscc3C)cc(-c3c(C)noc3C)cc2[nH]1 [Example Compound 166, 3,5-dimethyl-4-(2-methyl-4-(4-methyl-thiophen-3-yl)-1H-benzo[d]imidazol-6-yl)isoxazole] | 300 to 3000 nM | ≤ 300 nM | 300 to 3000 nM | 300 to 3000 nM
Cc1noc(C)c1-c1cc(-c2c(C)nn(C)c2C)c2[nH]ncc2c1 [Example Compound 127, 3,5-dimethyl-4-(7-(1,3,5-trimethyl-1H-pyrazol-4-yl)-1H-indazol-5-yl)isoxazole] | ≤ 300 nM | ≤ 300 nM | ≤ 300 nM | ≤ 300 nM
CC(=O)Nc1ccccc1-c1cc(-c2c(C)noc2C)cc2[nH]c(C)nc12 [Example Compound 64, N-(2-(6-(3,5-dimethyl-isoxazol-4-yl)-2-methyl-1H-benzo[d]imidazol-4-yl)phenyl) acetamide] | 300 to 3000 nM | ≤ 300 nM | ≤ 300 nM | 300 to 3000 nM
Cc1nc2c(-c3ccc4scnc4c3)cc(-c3c(C)noc3C)cc2[nH]1 [Example Compound 124, 4-(4-(benzo[d]thiazol-5-yl)-2-methyl-1H-benzo[d]imidazol-6-yl)-3,5-dimethyl isoxazole] | 300 to 3000 nM | ≤ 300 nM | 300 to 3000 nM | 300 to 3000 nM
Cc1noc(C)c1-c1cc(-c2cccc(C(N)=O)c2)c2nc[nH]c2c1 [Example Compound 36, 3-(6-(3,5-dimethyl-isoxazol-4-yl)-1H-benzo[d]imidazol-4-yl)benzamide] | 300 to 3000 nM | ≤ 300 nM | 300 to 3000 nM | 300 to 3000 nM
Cc1noc(C)c1-c1cc(-c2c(C)noc2C)c2c(c1)ncn2C [Example Compound 93, 4,4′-(1-methyl-1H-benzo[d]imidazole-5,7-diyl)bis(3,5-dimethylisoxazole)] | 300 to 3000 nM | ≤ 300 nM | ≤ 300 nM | ≤ 300 nM
Cc1nc2c(-c3ccc4nccnc4c3)cc(-c3c(C)noc3C)cc2[nH]1 [Example Compound 153, 3,5-dimethyl-4-(2-methyl-4-(quinoxalin-6-yl)-1H-benzo[d]imidazol-6-yl)isoxazole] | 300 to 3000 nM | ≤ 300 nM | 300 to 3000 nM | 300 to 3000 nM
Cc1nc2c(-c3cccc4ccncc34)cc(-c3c(C)noc3C)cc2[nH]1 [Example Compound 110, 4-(4-(iso-quinolin-8-yl)-2-methyl-1H-benzo[d]imidazol-6-yl)-3,5-dimethyl isoxazole] | 300 to 3000 nM | ≤ 300 nM | 300 to 3000 nM | 300 to 3000 nM
COc1cccc(-c2cc(-c3c(C)noc3C)cc3[nH]c(C)nc23)c1F [Example Compound 152, 4-(4-(2-fluoro-3-methoxy-phenyl)-2-methyl-1H-benzo[d]imidazol-6-yl)-3,5-dimethyl isoxazole] | 300 to 3000 nM | ≤ 300 nM | ≤ 300 nM | 300 to 3000 nM
Cc1noc(C)c1-c1cc(-c2cccc(C#N)c2C)c2nc(NC3CCOCC3)[nH]c2c1 [Example Compound 204, 3-(6-(3,5-dimethyl-isoxazol-4-yl)-2-((tetrahydro-2H-pyran-4-yl)amino)-1H-benzo[d]imidazol-4-yl)-2-methyl benzonitrile] | ≤ 300 nM | ≤ 300 nM | ≤ 300 nM | ≤ 300 nM
Cc1nc2c(N3CCOCC3C)cc(-c3c(C)noc3C)cc2[nH]1 (stereo not drawn) [Example Compound 177, 4-(6-(3,5-dimethyl-isoxazol-4-yl)-2-methyl-1H-benzo[d]imidazol-4-yl)-3-methyl morpholine] | 300 to 3000 nM | ≤ 300 nM | 300 to 3000 nM | ≤ 300 nM
COc1ccc(C)cc1-c1cc(-c2c(C)noc2C)cc2[nH]cnc12 [Example Compound 51, 4-(4-(2-methoxy-5-methyl-phenyl)-1H-benzo[d]midazol-6-yl)-3,5-dimethyl isoxazole] | 300 to 3000 nM | ≤ 300 nM | 300 to 3000 nM | 300 to 3000 nM
Cc1nc2c(-c3cccnc3)cc(-c3c(C)noc3C)cc2[nH]1 [Example Compound 79, 3,5-dimethyl-4-(2-methyl-4-(pyridin-3-yl)-1H-benzo[d]imidazol-6-yl)isoxazole] | 300 to 3000 nM | ≤ 300 nM | 300 to 3000 nM | ≤ 300 nM
Cc1nc2c(-c3cc(C(F)(F)F)ccc3F)cc(-c3c(C)noc3C)cc2[nH]1 [Example Compound 157, 4-(4-(2-fluoro-5-(trifluoro-methyl)phenyl)-2-methyl-1H-benzo[d]imidazol-6-yl)-3,5-dimethyl isoxazole] | 300 to 3000 nM | ≤ 300 nM | 300 to 3000 nM | 300 to 3000 nM
Cc1ccc(C#N)cc1-c1cc(-c2c(C)noc2C)cc2[nH]c(NC3CCN(C)CC3)nc12 [Example Compound 205, 3-(6-(3,5-dimethyl-isoxazol-4-yl)-2-((1-methyl-piperidin-4-yl)amino)-1H-benzo[d]imidazol-4-yl)-4-methyl benzonitrile] | 300 to 3000 nM | ≤ 300 nM | 300 to 3000 nM | ≤ 300 nM
Cc1noc(C)c1-c1cc(-c2c(C)noc2C)c2nc(NCCO)[nH]c2c1 [Example Compound 150, 2-((4,6-bis(3,5-dimethyl-isoxazol-4-yl)-1H-benzo[d]imidazol-2-yl)amino) ethanol] | 300 to 3000 nM | ≤ 300 nM | 300 to 3000 nM | 300 to 3000 nM
Cc1nc2c(-c3cc(F)ccc3C#N)cc(-c3c(C)noc3C)cc2[nH]1 [Example Compound 94, 2-(6-(3,5-dimethyl-isoxazol-4-yl)-2-methyl-1H-benzo[d]imidazol-4-yl)-4-fluoro-benzonitrile] | 300 to 3000 nM | ≤ 300 nM | 300 to 3000 nM | 300 to 3000 nM
Cc1nc2c(-c3cc(C(F)(F)F)ccc3Cl)cc(-c3c(C)noc3C)cc2[nH]1 [Example Compound 162, 4-(4-(2-chloro-5-(trifluoro-methyl)phenyl)-2-methyl-1H-benzo[d]imidazol-6-yl)-3,5-dimethyl isoxazole] | 300 to 3000 nM | 300 to 3000 nM | 300 to 3000 nM | 300 to 3000 nM
Cc1noc(C)c1-c1cc(-c2cccc3c2cnn3C)c2nc[nH]c2c1 [Example Compound 23, 3,5-dimethyl-4-(4-(1-methyl-1H-indazol-4-yl)-1H-benzo[d]imidazol-6-yl)isoxazole] | 300 to 3000 nM | ≤ 300 nM | ≤ 300 nM | 300 to 3000 nM
Cc1nc2c(-c3ccccc3S(C)(=O)=O)cc(-c3c(C)noc3C)cc2[nH]1 [Example Compound 69, 3,5-dimethyl-4-(2-methyl-4-(2-(methyl-sulfonyl)phenyl)-1H-benzo[d]imidazol-6-yl)isoxazole] | 300 to 3000 nM | ≤ 300 nM | 300 to 3000 nM | 300 to 3000 nM
Cc1noc(C)c1-c1cc(-c2c(C)noc2C)c2cn[nH]c2c1 [Example Compound 87, 4,4′-(1H-indazole-4,6-diyl)bis(3,5-dimethylisoxazole)] | 300 to 3000 nM | ≤ 300 nM | 300 to 3000 nM | 300 to 3000 nM
